Experimental data as given in article PMC8267945, “Plumbagin, a Natural Product with Potent Anticancer Activities, Binds to and Inhibits Dihydroorotase, a Key Enzyme in Pyrimidine Biosynthesis” (International Journal of Molecular Sciences, 2021).

How the values were obtained:
KpDHOase = biological target: T1, KpDHOase (Klebsiella pneumoniae subsp. pneumoniae, UniProt A6T7D6); assay: rapid spectrophotometric DHOase enzyme assay (hydrolysis of DHO); assay type: biochemical, Klebsiella pneumonia; settings: PLU 200 μM
T1 construct: made in house; host or cells: E. coli BL21(DE3)
T1 sequence (A6T7D6 whole entry): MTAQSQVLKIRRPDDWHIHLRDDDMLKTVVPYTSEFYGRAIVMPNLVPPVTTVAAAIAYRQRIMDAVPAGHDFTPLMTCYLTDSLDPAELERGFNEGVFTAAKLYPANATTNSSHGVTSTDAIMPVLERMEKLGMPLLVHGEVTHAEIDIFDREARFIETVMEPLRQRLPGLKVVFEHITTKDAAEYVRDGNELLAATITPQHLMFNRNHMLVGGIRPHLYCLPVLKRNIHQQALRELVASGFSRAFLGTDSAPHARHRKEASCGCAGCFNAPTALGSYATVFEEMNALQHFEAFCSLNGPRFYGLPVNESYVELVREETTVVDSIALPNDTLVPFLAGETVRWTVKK
Protocol: (§1) A rapid spectrophotometric assay was used to determine the activity of DHOase. Briefly, the hydrolysis of DHO was measured at 25 °C as the decrease in absorbance at 230 nm. The purified DHOase was added to a 2 mL solution containing 0.5 mM DHO and 100 mM Tris–HCl at pH 8.0 to start the reaction. The extinction coefficient of DHO was 0.92 mM^−1·cm^−1 at 230 nm. The hydrolysis of DHO was monitored using a UV/Vis spectrophotometer (Hitachi U 3300; Hitachi High-Technologies, Tokyo, Japan). A unit of activity was defined as the amount of enzyme catalyzing the hydrolysis of 1 μmol DHO/min, and the specific activity was expressed in terms of units of activity per mg of enzyme. The kinetic parameters Km and Vmax were determined from a nonlinear plot by fitting the hydrolyzing rate from individual experiments to the Michaelis–Menten equation (Enzyme Kinetics module of Sigma-Plot; Systat Software, Chicago, IL, USA).

[1] = system: S. enterica serovar Typhimurium LT2; assay: bacterial growth inhibition; assay type: cell-based; settings: 100 μM PLU added at 0.5 OD600, 37 °C
Protocol: (§2) Figure 8 Anticancer and antibacterial activities of PLU. (A) The trypan blue assay—4T1 cells incubated with PLU (10 μM). After 24 h, the anticancer potentiality was estimated. (B) The wound-healing assay—4T1 cells were seeded in 24-well plates. Cells were incubated with PLU (10 μM) for 24 h to allow migration. (C) Hoechst staining assay—an amount of 10 μM PLU-induced apoptosis with DNA fragmentation was observed. […] (E) Effects of PLU on cell survival, migration and proliferation, and nuclear condensation—a concentration of 10 μM PLU was effective for anti-4T1 cancer cells. (F) PLU inhibited bacterial growth—K. pneumoniae and S. enterica serovar Typhimurium LT2 cells were grown to 0.5 OD600 at 37 °C, and then PLU was added into the medium. […] PLU may inhibit the pyrimidine biosynthesis, resulting in its antibacterial activities.
(§3) Similar to cancer cells, bacterial cells are rapidly reproducible, and their growth might be suppressed by PLU. To test whether PLU could inhibit bacterial growth, we grew Klebsiella pneumoniae and S. enterica serovar Typhimurium LT2 cells to 0.5 OD600 at 37 °C, and then added PLU into the medium. […] Thus, PLU was also effective for antipathogen chemotherapies. PLU may inhibit pyrimidine biosynthesis, resulting in antibacterial activities.

Klebsiella pneumoniae = assay: bacterial growth inhibition; assay type: cell-based; settings: 100 μM PLU added at 0.5 OD600, 37 °C
Protocol: as §2, §3

4T1 cells [2] = assay: clonogenic formation assay; assay type: cell-based, mouse
Protocol: A clonogenic formation assay was used to assess the 4T1 cell growth to study whether the PLU can inhibit 4T1 cell proliferation. Briefly, 4T1 cells were seeded at a density of 10^3 cells per well into 6-well plates and incubated overnight for attachment. After different treatments, plates were incubated for 5–7 days to allow clonogenic growth. After washing with PBS, colonies were fixed with methanol and stained with 0.5% crystal violet for 20 min, and the number of colonies was counted under a light microscope.

ScDHOase = biological target: T2, ScDHOase (Saccharomyces cerevisiae, UniProt P20051); assay: rapid spectrophotometric DHOase enzyme assay (hydrolysis of DHO); assay type: biochemical
T2 construct: made in house; host or cells: E. coli BL21(DE3)
T2 sequence (P20051 whole entry): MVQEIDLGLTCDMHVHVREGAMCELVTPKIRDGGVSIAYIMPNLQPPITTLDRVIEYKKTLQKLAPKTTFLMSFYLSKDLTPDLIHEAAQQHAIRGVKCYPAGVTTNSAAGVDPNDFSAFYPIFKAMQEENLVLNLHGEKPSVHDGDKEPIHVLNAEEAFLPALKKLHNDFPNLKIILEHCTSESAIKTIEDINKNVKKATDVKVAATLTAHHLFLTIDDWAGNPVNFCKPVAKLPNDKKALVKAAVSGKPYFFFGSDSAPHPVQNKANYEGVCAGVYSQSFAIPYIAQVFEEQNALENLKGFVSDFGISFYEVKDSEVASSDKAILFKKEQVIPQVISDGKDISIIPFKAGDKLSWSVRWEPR
Protocol: PLU (50 μM) was included in the standard assay for analyzing the enzyme activity under different substrate concentrations. […] Data points are an average of three determinations within the 10% error.
as §1

huDHOase = biological target: T3, huDHOase (Homo sapiens, UniProt P27708); assay: as above; assay type: biochemical; settings: 200 μM compound in the standard assay
T3 construct: huDHOase1456-1846-NdeI-N; made in house; host or cells: E. coli BL21(DE3)
T3 sequence (P27708 1456-1846): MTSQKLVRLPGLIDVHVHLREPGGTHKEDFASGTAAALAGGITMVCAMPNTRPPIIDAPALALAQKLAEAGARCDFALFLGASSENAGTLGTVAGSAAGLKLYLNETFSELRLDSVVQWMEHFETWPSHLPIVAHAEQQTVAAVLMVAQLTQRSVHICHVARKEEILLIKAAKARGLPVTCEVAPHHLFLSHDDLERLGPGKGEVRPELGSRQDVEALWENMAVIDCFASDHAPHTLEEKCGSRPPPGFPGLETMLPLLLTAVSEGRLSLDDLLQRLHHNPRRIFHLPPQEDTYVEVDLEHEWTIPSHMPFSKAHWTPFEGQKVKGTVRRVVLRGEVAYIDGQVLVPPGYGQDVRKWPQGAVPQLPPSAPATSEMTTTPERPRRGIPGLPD
Protocol: as §1, with “The extinction coefficient of DHO was 0.92 mM^−1·cm^−1 at 230 nm.” left out

4T1 cells [3] = assay: chromatin condensation assay (Hoechst staining); assay type: cell-based, mouse
Protocol: The apoptosis in 4T1 cells was assayed with Hoechst 33342 staining. The 4T1 cells were seeded in 6-well plates at a density of 5 × 10^5 cells per well in a volume of […] of culture medium. Cells were allowed to adhere for 16 h. After different treatments, cells were incubated for an additional 24 h, washed with PBS, stained with the Hoechst dye (1 μg·mL^−1) in the dark at RT for 10 min, and imaged using an inverted fluorescence microscope (Axiovert 200 M; Zeiss Axioplam, Oberkochen, Germany) at excitation and emission wavelengths (λem) of 360 and 460 nm, respectively. The apoptotic index was calculated as follows: apoptotic index = apoptotic cell number/(apoptotic cell number + nonapoptotic cell number).

CC1=CC(=O)c2c(O)cccc2C1=O [PLU, plumbagin]
decrease of the activity of KpDHOase (KpDHOase): 69% | growth of S. enterica serovar Typhimurium LT2 [1]: significantly inhibited the growth | growth of K. pneumoniae (Klebsiella pneumoniae): significantly inhibited the growth | Colony count (4T1 cells [2]; PLU 2 μM): 73% | suppression of proliferation and colony formation (4T1 cells [2]; pretreatment with 10 μM PLU): 98% | inhibition type (Lineweaver–Burk plot) (ScDHOase; PLU 50 μM, different substrate concentrations): competitive inhibitor | Vmax of ScDHOase in the presence of PLU (ScDHOase; PLU 50 μM, without PLU 69.9 ± 1.0): 64.1 ± 2.8 µmol/mg/min | decrease of the activity of ScDHOase (ScDHOase; PLU 200 μM): 66% | decrease of the activity of huDHOase (huDHOase): 30% | apoptosis with DNA fragmentation (4T1 cells [3]; 10 μM PLU): 100% | Apoptotic rate (4T1 cells [3]; PLU 2 μM): 8%
